Holding throughout (assay): relative viability (nuclei count vs DMSO), 5 days (fraction); higher = more cells survive
Compound in one assay: NC1(c2ccc(-c3nc4ccn5c(=O)[nH]nc5c4cc3-c3ccccc3)cc2)CCC1 [MK-2206]
An outline of the steps: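 Nuclei counted with MetaXpress define viability as the ratio of treated to vehicle wells, given as a median across plates. The lung cancer cell lines were in 1536-well plates, pinned with five √10-spaced library-drug doses and imaged at 4× after 5 days and Hoechst staining. Plates passed with control CV below 25% and at least one doubling.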

Compound in the assay “Pictilisib + Luminespib”: CS(=O)(=O)N1CCN(Cc2cc3nc(-c4cccc5[nH]ncc45)nc(N4CCOCC4)c3s2)CC1 [Pictilisib] + CCNC(=O)c1noc(-c2cc(C(C)C)c(O)cc2O)c1-c1ccc(CN2CCOCC2)cc1 [Luminespib] (partner 0.01 µM)
The method in brief: (§1)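 Lung cancer cell lines, seeded in 1536-well plates, were treated the following day by pin tool with a single drug or with five library-drug doses (not always all listed) in √10 steps on top of a fixed anchor-drug dose. Cells were fixed and nuclei stained in one step after 5 days, and nuclei were counted. Relative viability is the nuclei count for treated wells divided by that for vehicle wells, reported as medians of duplicate plates.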

Compound in the assay “Pictilisib + Vorinostat”: CS(=O)(=O)N1CCN(Cc2cc3nc(-c4cccc5[nH]ncc45)nc(N4CCOCC4)c3s2)CC1 [Pictilisib] + O=C(CCCCCCC(=O)Nc1ccccc1)NO [Vorinostat] (partner 1 µM)
The method in brief:
as §1

Compound in the assay “MK-2206 + Pemetrexed”: NC1(c2ccc(-c3nc4ccn5c(=O)[nH]nc5c4cc3-c3ccccc3)cc2)CCC1 [MK-2206] + Nc1nc2[nH]cc(CCc3ccc(C(=O)N[C@@H](CCC(=O)O)C(=O)O)cc3)c2c(=O)[nH]1 [Pemetrexed] (partner 0.2 µM)
The method in brief: as §1

Compound in the assay “Pictilisib + Navitoclax”: CS(=O)(=O)N1CCN(Cc2cc3nc(-c4cccc5[nH]ncc45)nc(N4CCOCC4)c3s2)CC1 [Pictilisib] + CC1(C)CCC(c2ccc(Cl)cc2)=C(CN2CCN(c3ccc(C(=O)NS(=O)(=O)c4ccc(N[C@H](CCN5CCOCC5)CSc5ccccc5)c(S(=O)(=O)C(F)(F)F)c4)cc3)CC2)C1 [Navitoclax] (partner 0.5 µM)
The method in brief: as §1

Take NCI-H522: the relative viability in the assay with MK-2206 (0.01 µM) worked out at 0.916; with MK-2206 (0.03162 µM), 1.01; with MK-2206 (0.3162 µM) it was 0.885; in the assay with MK-2206 (1 µM), 0.696; with Pictilisib + Luminespib (first compound 0.02 µM), 1.01; with Pictilisib + Luminespib (first compound 0.06325 µM), 0.939. In addition, the relative viability with Pictilisib + Luminespib (first compound 0.6325 µM) came to 0.894; in the assay with Pictilisib + Luminespib (first compound 2 µM), 0.788; with Pictilisib + Vorinostat (first compound 0.02 µM), 0.857; in the assay with Pictilisib + Vorinostat (first compound 0.06325 µM), 0.866; in the assay with Pictilisib + Vorinostat (first compound 0.6325 µM), 0.757; in the assay with Pictilisib + Vorinostat (first compound 2 µM) it was 0.608. In addition, the relative viability with MK-2206 + Pemetrexed (first compound 0.01 µM) turned out to be 1.04; in the assay with MK-2206 + Pemetrexed (first compound 0.03162 µM) it was 0.964; in the assay with MK-2206 + Pemetrexed (first compound 0.3162 µM) it was 0.887; with MK-2206 + Pemetrexed (first compound 1 µM) it was 1.
On to EBC-1, for which the relative viability with MK-2206 (0.01 µM) turned out to be 0.986; with MK-2206 (0.03162 µM), 1.01; with MK-2206 (0.3162 µM), 0.819; in the assay with MK-2206 (1 µM), 0.29; with Pictilisib + Navitoclax (first compound 0.02 µM) it was 0.38; with Pictilisib + Navitoclax (first compound 0.06325 µM), 0.412. For the same cell line, the values for the relative viability with Pictilisib + Navitoclax (first compound 0.6325 µM) and with Pictilisib + Navitoclax (first compound 2 µM) were 0.164 and 0.126, respectively.
As for HCC-78, the relative viability came out at 0.945 in the assay with MK-2206 (0.01 µM); 0.919 with MK-2206 (0.03162 µM); 1.02 with MK-2206 (0.3162 µM); 0.638 with MK-2206 (1 µM); 0.809 with Pictilisib + Navitoclax (first compound 0.02 µM); 0.594 in the assay with Pictilisib + Navitoclax (first compound 0.06325 µM). The relative viability turned out to be 0.45 with Pictilisib + Navitoclax (first compound 0.6325 µM); 0.231 with Pictilisib + Navitoclax (first compound 2 µM); 0.393 with Pictilisib + Vorinostat (first compound 0.02 µM); 0.384 with Pictilisib + Vorinostat (first compound 0.06325 µM); 0.322 in the assay with Pictilisib + Vorinostat (first compound 0.6325 µM); 0.257 with Pictilisib + Vorinostat (first compound 2 µM). The relative viability stood at 0.934 in the assay with MK-2206 + Pemetrexed (first compound 0.01 µM), 0.924 with MK-2206 + Pemetrexed (first compound 0.03162 µM), 0.909 in the assay with MK-2206 + Pemetrexed (first compound 0.3162 µM) and 0.934 with MK-2206 + Pemetrexed (first compound 1 µM).
Take IA-LM: the relative viability in the assay with MK-2206 (0.01 µM) is 0.904; with MK-2206 (0.03162 µM), 0.992; with MK-2206 (0.3162 µM), 1.02; in the assay with MK-2206 (1 µM) it was 0.691; in the assay with Pictilisib + Navitoclax (first compound 0.02 µM), 0.777; with Pictilisib + Navitoclax (first compound 0.06325 µM), 0.898. The relative viability in the assay with Pictilisib + Navitoclax (first compound 0.6325 µM) was 0.766; with Pictilisib + Navitoclax (first compound 2 µM), 0.309; in the assay with Pictilisib + Vorinostat (first compound 0.02 µM), 0.917; with Pictilisib + Vorinostat (first compound 0.06325 µM), 0.97; with Pictilisib + Vorinostat (first compound 0.6325 µM), 0.881; with Pictilisib + Vorinostat (first compound 2 µM), 0.373.
NCI-H1703: the relative viability is 0.985 with MK-2206 (0.01 µM); 0.868 in the assay with MK-2206 (0.03162 µM); 0.825 with MK-2206 (0.3162 µM); 0.784 with MK-2206 (1 µM); 1.38 with Pictilisib + Navitoclax (first compound 0.02 µM); 0.805 with Pictilisib + Navitoclax (first compound 0.06325 µM). The relative viability with Pictilisib + Navitoclax (first compound 0.6325 µM) amounted to 0.305; in the assay with Pictilisib + Navitoclax (first compound 2 µM), 0.204.
As for NCI-H358, the relative viability with MK-2206 (0.01 µM) stood at 1.01; in the assay with MK-2206 (0.03162 µM), 0.977; in the assay with MK-2206 (0.3162 µM) it was 0.972; with MK-2206 (1 µM), 0.871; with Pictilisib + Luminespib (first compound 0.02 µM) it was 0.382; in the assay with Pictilisib + Luminespib (first compound 0.06325 µM), 0.348. Also, the relative viability in the assay with Pictilisib + Luminespib (first compound 0.6325 µM) stood at 0.161; in the assay with Pictilisib + Luminespib (first compound 2 µM), 0.146; in the assay with Pictilisib + Vorinostat (first compound 0.02 µM), 0.816; with Pictilisib + Vorinostat (first compound 0.06325 µM) it was 0.693; in the assay with Pictilisib + Vorinostat (first compound 0.6325 µM) it was 0.603; in the assay with Pictilisib + Vorinostat (first compound 2 µM), 0.264. For the same cell line, the relative viability with MK-2206 + Pemetrexed (first compound 0.01 µM) was 0.169; in the assay with MK-2206 + Pemetrexed (first compound 0.03162 µM), 0.154; with MK-2206 + Pemetrexed (first compound 0.3162 µM) it was 0.186; in the assay with MK-2206 + Pemetrexed (first compound 1 µM), 0.162.
With A549, the relative viability stood at 1.02 in the assay with MK-2206 (0.01 µM); 1.07 with MK-2206 (0.03162 µM); 0.921 in the assay with MK-2206 (0.3162 µM); 0.877 with MK-2206 (1 µM); 1.32 with Pictilisib + Navitoclax (first compound 0.02 µM); 1.25 with Pictilisib + Navitoclax (first compound 0.06325 µM). Moreover, the relative viability with Pictilisib + Navitoclax (first compound 0.6325 µM) was found to be 0.919; in the assay with Pictilisib + Navitoclax (first compound 2 µM), 0.401.
Regarding NCI-H727, the relative viability with MK-2206 (0.01 µM) amounted to 0.976; in the assay with MK-2206 (0.03162 µM) it was 1.01; in the assay with MK-2206 (0.3162 µM) it was 0.901; in the assay with MK-2206 (1 µM), 0.894; with Pictilisib + Navitoclax (first compound 0.02 µM), 0.55; with Pictilisib + Navitoclax (first compound 0.06325 µM), 0.433. Also, the relative viability was found to be 0.303 with Pictilisib + Navitoclax (first compound 0.6325 µM); 0.156 in the assay with Pictilisib + Navitoclax (first compound 2 µM); 0.443 in the assay with Pictilisib + Luminespib (first compound 0.02 µM); 0.334 with Pictilisib + Luminespib (first compound 0.06325 µM); 0.29 in the assay with Pictilisib + Luminespib (first compound 0.6325 µM); 0.346 with Pictilisib + Luminespib (first compound 2 µM). Further, the relative viability with Pictilisib + Vorinostat (first compound 0.02 µM) is 1.04; with Pictilisib + Vorinostat (first compound 0.06325 µM) it was 1.29; with Pictilisib + Vorinostat (first compound 0.6325 µM), 1.11; in the assay with Pictilisib + Vorinostat (first compound 2 µM), 0.867.
For the cell line NCI-H1623, the relative viability in the assay with MK-2206 (0.01 µM) is 0.957; with MK-2206 (0.03162 µM), 1.07; with MK-2206 (0.3162 µM) it was 0.946; with MK-2206 (1 µM) it was 0.914; with Pictilisib + Luminespib (first compound 0.02 µM), 0.452; with Pictilisib + Luminespib (first compound 0.06325 µM), 0.455. In addition, the relative viability stood at 0.379 in the assay with Pictilisib + Luminespib (first compound 0.6325 µM) and 0.303 in the assay with Pictilisib + Luminespib (first compound 2 µM).
Take NCI-H1563: the relative viability with MK-2206 (0.01 µM) came to 0.925; with MK-2206 (0.03162 µM), 0.975; with MK-2206 (0.3162 µM), 0.885; with MK-2206 (1 µM) it was 0.764; with Pictilisib + Luminespib (first compound 0.02 µM) it was 0.44; in the assay with Pictilisib + Luminespib (first compound 0.06325 µM) it was 0.513. Also, the relative viability with Pictilisib + Luminespib (first compound 0.6325 µM) stood at 0.497; with Pictilisib + Luminespib (first compound 2 µM) it was 0.468; with MK-2206 + Pemetrexed (first compound 0.01 µM), 0.746; with MK-2206 + Pemetrexed (first compound 0.03162 µM) it was 0.771; with MK-2206 + Pemetrexed (first compound 0.3162 µM), 0.697; in the assay with MK-2206 + Pemetrexed (first compound 1 µM), 0.744.
Consider NCI-H1792, for which the relative viability with MK-2206 (0.01 µM) amounted to 0.941; in the assay with MK-2206 (0.03162 µM), 0.869; in the assay with MK-2206 (0.3162 µM) it was 0.971; with MK-2206 (1 µM) it was 0.677; with Pictilisib + Navitoclax (first compound 0.02 µM), 0.641; with Pictilisib + Navitoclax (first compound 0.06325 µM) it was 0.728. The relative viability with Pictilisib + Navitoclax (first compound 0.6325 µM) turned out to be 0.383; with Pictilisib + Navitoclax (first compound 2 µM), 0.226; with Pictilisib + Luminespib (first compound 0.02 µM), 0.366; with Pictilisib + Luminespib (first compound 0.06325 µM) it was 0.41; with Pictilisib + Luminespib (first compound 0.6325 µM), 0.25; with Pictilisib + Luminespib (first compound 2 µM) it was 0.225. The relative viability in the assay with MK-2206 + Pemetrexed (first compound 0.01 µM) was 0.76; with MK-2206 + Pemetrexed (first compound 0.03162 µM), 0.929; with MK-2206 + Pemetrexed (first compound 0.3162 µM) it was 0.654; with MK-2206 + Pemetrexed (first compound 1 µM), 0.373.
ABC-1: the relative viability stood at 0.947 with MK-2206 (0.01 µM); 0.949 with MK-2206 (0.03162 µM); 0.884 with MK-2206 (0.3162 µM); 0.879 with MK-2206 (1 µM); 0.514 with Pictilisib + Luminespib (first compound 0.02 µM); 0.583 with Pictilisib + Luminespib (first compound 0.06325 µM). Also, the relative viability with Pictilisib + Luminespib (first compound 0.6325 µM) came to 0.394; in the assay with Pictilisib + Luminespib (first compound 2 µM), 0.545; with Pictilisib + Vorinostat (first compound 0.02 µM) it was 0.83; with Pictilisib + Vorinostat (first compound 0.06325 µM), 1.07; with Pictilisib + Vorinostat (first compound 0.6325 µM), 0.859; with Pictilisib + Vorinostat (first compound 2 µM), 0.691.
